Laboratory results: US9546157B2, “Asymmetric piperidinyl-substituted ureas as medicines” (Helsinn Healthcare SA, priority 2014, dated 2017)
pEC50: −log10 of the molar value. Entries after “also recorded” stand apart in the source; their conditions may differ.

Experiments:
[1] = biological target: T1, GHSR1a (Homo sapiens, UniProt Q92847); experiment: Calcium FLIPR assay, GHSR-1a agonism; assay type: cell-based; conditions: HEK293/GHSR1a cells
T1 construct: expressed in transfected cells; host or cells: HEK293
T1 sequence (Q92847 whole entry): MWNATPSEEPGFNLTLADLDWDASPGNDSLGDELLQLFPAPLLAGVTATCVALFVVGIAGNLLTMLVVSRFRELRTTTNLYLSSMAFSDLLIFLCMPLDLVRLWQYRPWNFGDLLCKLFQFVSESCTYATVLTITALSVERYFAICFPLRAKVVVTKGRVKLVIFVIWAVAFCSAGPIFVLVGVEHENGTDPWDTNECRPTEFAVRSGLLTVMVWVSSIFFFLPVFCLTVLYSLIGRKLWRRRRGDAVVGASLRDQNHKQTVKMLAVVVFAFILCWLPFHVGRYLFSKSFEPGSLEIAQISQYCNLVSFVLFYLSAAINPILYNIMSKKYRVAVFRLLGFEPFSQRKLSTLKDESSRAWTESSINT
Summary of the method: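 HEK293 cells expressing GHSR1a, seeded 24 hr earlier and loaded with calcium dye for 30-60 min at room temperature or 37° C, were read by FLIPR fluorescence. Agonism: compound added at t=20 sec, calcium followed 2 minutes. Antagonism: compound plus ghrelin (10 nM) at t=20 sec; potency from reduction of ghrelin response.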

[2] = system: female Sprague-Dawley rats; experiment: Binge eating model in non-estrous female rats (food restriction + stress, HPF intake); assay type: in vivo, rat; conditions: for 2-h chow food intake during binge eating test / 24-h chow food intake after binge eating test: acute administration (compounds 3 and 30 mg/kg, Topiramate 60 mg/kg)
Protocol: In this Example, the therapeutic potential of compounds were tested for their ability to inhibit binge eating. The animal model used was developed to explore the combination of food restriction and stress. […] Considering the reliability and the robustness of this model, it was adopted to test the inventive compounds.
A total of N=117, 52-day-old female Sprague-Dawley rats (175-200 g) were used. Rats were acclimated in individual cages with metallic walls; the floor and the front wall made of metallic grid. The dimensions of the cage floor being 30 cm×30 cm; the cage is 30 cm high. A front door (30 cm×20 cm) made of metallic grid was positioned in the anterior wall of the cage to gain access to the inside of the cage; the remaining part of the front wall was equipped with a drinking burette.
Rats were kept in a room at constant temperature (20-22° C.) and humidity (45-55%) under a 12-h light/dark cycle (lights on at 08:00 am) with ad lib chow and water. All procedures were conducted in adherence to the European Community Directive for Care and Use of Laboratory Animals.
Rats were offered food pellets, 4RF18, Mucedola, Settimo Milanese, Italy (2.6 kcal/g). The Highly Palatable Food (HPF) was prepared by mixing:
Rats were exposed to 3 consecutive 8-day cycles followed by the final test on day 25:
a) the control group (NR+NS) had chow ad libitum for 4 days, on days 5-6 it received chow+HPF for 2 h; on days 7-8 it had chow ad libitum; on day 25 it was not exposed to stress;
b) the second group (R+S) had chow restricted to 66% of the normal intake for 4 days, was offered chow and HPF (2 h) on days 5-6 and only chow on days 7-8; on day 25 it […].
Body weights and food intake were recorded daily. Food intake is expressed as mean kilocalories per kilogram ingested±SEM.
Therefore, immediately after the test on day 25, vaginal smears were collected and analyzed under microscope to assess the ovarian phase, and data from rats in the estrous phase were not included in the statistical analysis. Vaginal smears were analyzed by an experienced experimenter blind to treatment conditions.
For 15 min, the container (China coffee cup) containing HPF is placed outside the cage; the container handle is hooked to the top wire wall of the cage in the hollow part where food pellets are usually offered. In these conditions, the animal is able to see the cup in which it received HPF on days 5, 6, 13, and 14 of the first two cycles, is able to see in part the HPF itself, and is able to smell its odour. In this 15-min period, the rat engages in repeated movements of the forepaws, head, and trunk aimed at obtaining the HPF, but it is not able to reach it. Rats undergo the stressful procedure between 10.00 and 12.00 am. After 15 min, the cup is placed inside the cage of the rats in the stress group (R+S), so that the HPF became accessible to the rat.
100 mg of each compound (H0816, H0860, H0847 and H0900) was accurately weighed and suspended in 13.33 ml of 0.5% carboxymethyl cellulose sodium salt (CMC, Sigma-Aldrich Cat. C4888, lot 120M0216V) solution. The lower dose solution was prepared by dilution of 30 mg/ml suspension with 0.5% CMC solution. Suspensions were prepared freshly on test day. Vehicle was composed by a solution of 0.5% carboxymethyl cellulose sodium salt and was prepared by dissolving 1 g of CMC in 200 ml of distilled water. 180 mg of Topiramate was accurately weighed and suspended in 12 ml of 0.5% CMC solution. Compounds (vehicle and active principles) were administered by gavage in a volume of 4 ml/kg of body weight one hour before access to HPF.
All data are expressed as the mean±s.e.m. and each value reflects the mean number of animals per group as described in the legends. For data evaluation, the analysis of variance (ANOVA) was used followed by post-hoc (Bonferroni's) test when appropriate. Statistical significance was set at P<0.05. The Software used for the Graphs was Origin 7.0. […]

[3] = first test, 30 mg/kg by gavage 1 h before access to HPF, vs R+S vehicle
[4] = first test, 3 and 30 mg/kg by gavage
[5] = first test, doses of 3 and 30 mg/kg by gavage, acute administration
[6] = second test, H0816 3, 10 and 30 mg/kg, Topiramate 60 mg/kg

pEC50 [1]	animals' gross behaviour during the 2-h test [2, 4]	animals' gross behaviour during the 2-h test ([2]; second test, 3, 10 and 30 mg/kg by gavage)	Compound	HPF intake (binge eating) in R+S rats, post-hoc [2, 3]	2-h chow food intake during binge eating test ([2]; first test)	24-h chow food intake after binge eating test ([2]; first test)	2-h HPF intake (binge eating) in R+S rats, overall (ANOVA) [2, 5]	HPF intake (binge eating) in R+S rats, post-hoc ([2]; second test, 10 mg/kg by gavage 1 h before access to HPF)	HPF intake (binge eating) in R+S rats, post-hoc ([2]; second test, 30 mg/kg by gavage 1 h before access to HPF)	2-h chow intake [2, 6]	24-h chow intake [2, 6]	2-h HPF intake (binge eating) in R+S rats, overall (ANOVA) ([2]; second test, doses of 3, 10 and 30 mg/kg by gavage)	HPF intake (binge eating) in R+S rats, post-hoc ([2]; first test, 3 mg/kg by gavage 1 h before access to HPF, vs R+S vehicle)
< 4.52	did not affect animals' gross behaviour	did not affect animals' gross behaviour	C[C@H](NC(=O)N(C)C1CCN(C)CC1)c1ccc(-c2cnccn2)c(Cl)c1Cl [Compound H0816, (S)-3-(1-(2,3-dichloro-4-(pyrazin-2-yl)phenyl)ethyl)-1-methyl-1-(1-methylpiperidin-4-yl)urea]	statistically significant (P<0.05) at 15 min time point	did not modify 2-h chow intake	did not modify 24-h chow intake	reduced binge eating episodes; also recorded: significant difference; also recorded: significantly reduced BE behaviour	statistically significant (P<0.05) at 15 min time point	completely blocked (P<0.01) the BE episode at 15 min	did not modify	did not modify	significant difference; also recorded: confirmed, dose dependently, its selective inhibitory effect on BE	–
< 4.52	–	–	CC[C@H](NC(=O)N(C)C1CCN(C)CC1)c1ccc(-c2cnccn2)c(Cl)c1Cl [Compound H0860, (S)-3-(1-(2,3-dichloro-4-(pyrazin-2-yl)phenyl)propyl)-1-methyl-1-(1-methylpiperidin-4-yl)urea]	–	significantly increased 2-h chow food intake	significantly increased 24-h chow food intake	not statistically significant; also recorded: did not significantly reduce HPF intake; also recorded: did not affect HPF intake	–	–	–	–	–	–
< 4.52	did not affect animals' gross behaviour	–	CN1CCC(N(C)C(=O)N[C@H](c2ccc(-c3cnccn3)c(Cl)c2Cl)C(F)(F)F)CC1 [Compound H0900, (R)-3-(1-(2,3-dichloro-4-(pyrazin-2-yl)phenyl)-2,2,2-trifluoroethyl)-1-methyl-1-(1-methylpiperidin-4-yl)urea]	statistically significant (P<0.01) at all time points	did not modify 2-h chow intake	did not modify 24-h chow intake	reduced binge eating episodes; also recorded: significant difference; also recorded: significantly reduced BE behaviour	–	–	–	–	–	–

Compound	pEC50 [1]	animals' gross behaviour during the 2-h test [2, 4]	animals' gross behaviour during the 2-h test ([2]; second test, 3, 10 and 30 mg/kg by gavage)	HPF intake (binge eating) in R+S rats, post-hoc [2, 3]	2-h chow food intake during binge eating test ([2]; first test)	24-h chow food intake after binge eating test ([2]; first test)	2-h HPF intake (binge eating) in R+S rats, overall (ANOVA) [2, 5]	HPF intake (binge eating) in R+S rats, post-hoc ([2]; second test, 10 mg/kg by gavage 1 h before access to HPF)	HPF intake (binge eating) in R+S rats, post-hoc ([2]; second test, 30 mg/kg by gavage 1 h before access to HPF)	2-h chow intake [2, 6]	24-h chow intake [2, 6]	2-h HPF intake (binge eating) in R+S rats, overall (ANOVA) ([2]; second test, doses of 3, 10 and 30 mg/kg by gavage)	HPF intake (binge eating) in R+S rats, post-hoc ([2]; first test, 3 mg/kg by gavage 1 h before access to HPF, vs R+S vehicle)
C[C@H](NC(=O)N(C)C1CCN(C)CC1)c1ccc(-c2cncc(F)n2)c(Cl)c1Cl [Compound H0847, (S)-3-(1-(2,3-dichloro-4-(6-fluoropyrazin-2-yl)phenyl)ethyl)-1-methyl-1-(1-methylpiperidin-4-yl)urea]	< 4.52	mild sedation	–	significantly (P<0.01) reduced HPF intake at all time points	significantly increased 2-h chow food intake	significantly increased 24-h chow food intake	reduced binge eating episodes; also recorded: significant difference; also recorded: significantly reduced BE behaviour	–	–	–	–	–	statistically significant at 15, 30 and 60 min after HPF access
